What was measured:
[1] = Solubility in solvents and water; type: physicochemical
[2] = tested on: Arteriovenous Loop Thrombus; experiment: Arteriovenous loop thrombus in rats, thrombus wet weight and inhibition rate; type: in vivo; conditions: 5.4 mg·kg^−1 by gavage for 3 days
Procedure: Normal rats, half male and half female, were randomly grouped according to table 1. The administration group was given water solution of Sodium Salt L-ascorbic acid-6-O—(S)-ibuprofen ester (pH 7.4) by gavage and the control group was given equivalent pH normal saline for continuous 3 days. The rat was intraperitoneally injected with 350 mg of 8% chloral hydrate per kg for anesthesia 1 h after the last administration, and then fixed in the supine position to separate the right common carotid artery and the left external jugular vein. An early weighed No. 7 operation line (about 8 cm long) was placed in the middle of a 10 cm long polyethylene tube, and then the tube was filled with normal saline and both ends of the tube were connected with an intubation filled with heparin (about 3 cm long), in which one end was inserted into the jugular vein, and the other end was inserted into the common carotid artery. After opening the artery clip, the in vitro loop flow was formed. The blood flow was interrupted after 15 min followed by quickly taking the thrombus and weighing. […]
Statistical analysis: the experimental data was represented as x±s, and the significance of the differences was determined with one-factor analysis of variance. t represented t-test results between the control group and the Sodium Salt L-ascorbic acid-6-O—(S)-ibuprofen ester.

| Structure (SMILES) | Solubility ([1]; in chloroform) | Solubility ([1]; in cyclohexane) | Solubility ([1]; in ethanol) | Solubility ([1]; in methanol) | Solubility ([1]; in propylene glycol) | Solubility ([1]; in water) | solubility in water ([1]; water) [g] | thrombus wet weight/body weight × 100 ([2]; 1 h after last administration, 15 min loop flow, x±s) | Thrombus inhibition rate ([2]; versus control group) [%] |
| --- | --- | --- | --- | --- | --- | --- | --- | --- | --- |
| CC(C)Cc1ccc([C@H](C)C(=O)OC[C@H](O)[C@H]2OC(=O)C(O)=C2O)cc1 [Embodiment 1, L-Ascorbic Acid-6-O—(S)-Ibuprofen Ester] | insoluble | insoluble | soluble | soluble | soluble | insoluble | – | – | – |
| CC(C)Cc1ccc([C@H](C)C(=O)OC[C@H](O)[C@H]2OC(=O)C(O)=C2[O-])cc1.[Na+] [Sodium Salt L-Ascorbic Acid-6-O—(S)-Ibuprofen Ester] | – | – | – | – | – | – | 12.8 | 10.372 ± 0.801 | 12.9 |

From patent publication US8703975B2, “Aryl (ethanoic) propanoic acid ascorbyl ester, preparation method thereof and medicament containing the same” (Wuxi Hongrui Bio-Pharma-Tech Co., Ltd., priority 2009, dated 2014)
